# Measurements: patent US20040072825A1, “2-(2-(4-((2r)-2-methyl-3-(10h-phenothiazin-10-yl)propyl)-1-piperazinyl)-ethoxy) ethanol, process for the preparation thereof, pharmaceutical compositions containing said compound and therapeutic uses thereof” (priority 2000, published 2004)
# Marks after values point to notes of the source that are not given here.
# Experiments:
# [1] = target: T1, D4.4 dopaminergic receptor (Homo sapiens, UniProt P21917); test: Radioligand binding, D4.4 receptor (CHO cell culture); conditions: for IC50: D4.4, competitive binding, read-out: Affinity pIC50 (-log IC50) (converted)
# T1 construct: expressed in transfected cells; host or cells: CHO
# T1 sequence (P21917 1-419): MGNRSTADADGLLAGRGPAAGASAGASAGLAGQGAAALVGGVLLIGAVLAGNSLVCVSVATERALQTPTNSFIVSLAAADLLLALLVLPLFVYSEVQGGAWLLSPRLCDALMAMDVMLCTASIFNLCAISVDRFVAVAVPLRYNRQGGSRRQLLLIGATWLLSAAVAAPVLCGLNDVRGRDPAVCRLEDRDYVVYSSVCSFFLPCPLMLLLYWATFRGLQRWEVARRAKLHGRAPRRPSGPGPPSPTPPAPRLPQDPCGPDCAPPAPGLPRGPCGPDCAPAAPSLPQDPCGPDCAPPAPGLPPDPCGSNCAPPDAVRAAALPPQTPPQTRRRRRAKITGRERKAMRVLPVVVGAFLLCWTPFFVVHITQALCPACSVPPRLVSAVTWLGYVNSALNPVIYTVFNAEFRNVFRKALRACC
# Protocol: (§1) The test substances, biological materials and experimental protocols used in the study are described in Moguilevsky N. et al. (1994) Eur. J. […] List S. J. (1981) Proc. Natl. Acad. Sci.78:2620-2624; MacKenzie R. G. et al. (1994) Eur. J. Pharmacol. 266:79-85; Van Tol et al., (1992) Nature, 358:149-152. […] Filtermat A, Walac), then washed with cold buffer using a filtration unit ‘Cell Harvester’ (Brandel, Packard or Tomtec). The bound radioactivity is measured using a scintillation liquid (Formula 989 or Microscint 0, Packard) or solid (Meltilex B/HS, Wallac), and a scintillation counter (LS 6000, Beckman; Topcount, Packard; Betaplate, Wallac). […] Each experiment was performed in duplicate (n=2). In parallel, a positive control (concentration of reference substance causing 50% inhibition of radioligand specific binding) is tested to validate the assay. For competition experiments, membranes are incubated in the buffer containing the radioligand and increasing concentrations of unlabeled test substances. Each binding assay is validated with a reference compound tested in parallel. […] where BO and BI represent the total binding in the absence and presence of the unlabelled drug (in dpm/assay) and NSB is the amount of non specific binding (in dpm/assay). Analysis of raw data and pIC50 calculation is performed by computerized non-linear curve fitting methods using a set of equations describing competitive interactions between labelled and unlabeled ligands which obey the law of mass action. IC50 represents the concentration of the test substance inhibiting 50% of the specific binding of the radioligand. It is determined in competitive binding experiments by measuring the binding of a single concentration of a radioactive ligand at equilibrium with various concentrations of the unlabeled test substance. pIC50=−log IC50
# [2] = target: T2, human D3 dopaminergic receptor (Homo sapiens, UniProt P35462); test: Radioligand binding, human D3 receptor (CHO cell culture); conditions: for IC50: D3, competitive binding, read-out: Affinity pIC50 (-log IC50) (converted)
# T2 construct: expressed in transfected cells; host or cells: CHO
# T2 sequence (P35462 whole entry): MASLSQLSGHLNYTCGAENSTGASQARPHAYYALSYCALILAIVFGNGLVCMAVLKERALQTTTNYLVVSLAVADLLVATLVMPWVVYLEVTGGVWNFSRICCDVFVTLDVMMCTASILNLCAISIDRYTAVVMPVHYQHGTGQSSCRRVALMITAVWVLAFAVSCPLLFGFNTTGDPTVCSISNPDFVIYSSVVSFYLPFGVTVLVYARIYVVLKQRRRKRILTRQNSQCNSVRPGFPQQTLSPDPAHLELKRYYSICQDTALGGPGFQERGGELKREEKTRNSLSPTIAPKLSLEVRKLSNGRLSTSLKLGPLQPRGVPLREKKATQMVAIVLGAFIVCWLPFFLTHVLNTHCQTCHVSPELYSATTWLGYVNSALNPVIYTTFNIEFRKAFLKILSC
# Protocol: as §1
# D2 dopaminergic receptor = D2 dopaminergic receptor (Rattus norvegicus, UniProt P61169); test: Radioligand binding, D2 receptor (rat striatum membranes); conditions: for IC50: D2, competitive binding, read-out: Affinity pIC50 (-log IC50) (converted)
# D2 dopaminergic receptor, sequence (P61169 1-415 isoform P61169-2): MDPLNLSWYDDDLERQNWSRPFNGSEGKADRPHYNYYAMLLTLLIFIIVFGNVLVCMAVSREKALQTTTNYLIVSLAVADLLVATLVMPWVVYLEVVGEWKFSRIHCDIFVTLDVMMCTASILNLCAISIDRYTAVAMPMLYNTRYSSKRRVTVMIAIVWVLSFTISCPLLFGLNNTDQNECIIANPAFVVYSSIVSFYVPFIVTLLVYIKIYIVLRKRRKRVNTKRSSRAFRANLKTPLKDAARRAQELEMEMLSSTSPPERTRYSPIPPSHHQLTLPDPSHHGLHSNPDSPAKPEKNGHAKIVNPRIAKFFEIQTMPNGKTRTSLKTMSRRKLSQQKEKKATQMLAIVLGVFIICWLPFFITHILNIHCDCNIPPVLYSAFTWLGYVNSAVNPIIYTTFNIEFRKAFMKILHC
# Protocol: as §1
# [3] = target: human H1 histaminic receptor (Homo sapiens, UniProt P35367); test: Radioligand binding, human H1 receptor (CHO cell culture); conditions: for IC50: H1, competitive binding, read-out: Affinity pIC50 (-log IC50) (converted)
# human H1 histaminic receptor, sequence (P35367 whole entry): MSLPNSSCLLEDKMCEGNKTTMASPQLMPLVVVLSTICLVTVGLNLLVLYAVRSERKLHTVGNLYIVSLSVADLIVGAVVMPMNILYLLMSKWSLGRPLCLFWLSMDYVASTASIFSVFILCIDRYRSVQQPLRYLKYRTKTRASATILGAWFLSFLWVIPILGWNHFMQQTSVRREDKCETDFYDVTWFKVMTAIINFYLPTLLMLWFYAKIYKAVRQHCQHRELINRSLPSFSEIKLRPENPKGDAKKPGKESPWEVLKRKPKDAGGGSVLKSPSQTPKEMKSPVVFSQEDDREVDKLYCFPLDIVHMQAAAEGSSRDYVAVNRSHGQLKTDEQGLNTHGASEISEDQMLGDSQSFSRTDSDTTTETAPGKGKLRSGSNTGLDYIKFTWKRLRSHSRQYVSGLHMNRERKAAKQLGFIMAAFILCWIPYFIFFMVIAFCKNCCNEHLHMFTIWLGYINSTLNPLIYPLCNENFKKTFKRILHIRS
# Protocol: as §1
# [4] = target: T3, 5-HT2 serotonergic receptor (Rattus norvegicus, UniProt P14842); test: Radioligand binding, 5-HT2 receptor (rat cerebral cortex); conditions: for IC50: 5-HT2, competitive binding, read-out: Affinity pIC50 (-log IC50) (converted)
# T3 construct: the rat cerebral cortex (5-HT2 receptor); from tissue; host or cells: rat cerebral cortex
# T3 sequence (P14842 whole entry): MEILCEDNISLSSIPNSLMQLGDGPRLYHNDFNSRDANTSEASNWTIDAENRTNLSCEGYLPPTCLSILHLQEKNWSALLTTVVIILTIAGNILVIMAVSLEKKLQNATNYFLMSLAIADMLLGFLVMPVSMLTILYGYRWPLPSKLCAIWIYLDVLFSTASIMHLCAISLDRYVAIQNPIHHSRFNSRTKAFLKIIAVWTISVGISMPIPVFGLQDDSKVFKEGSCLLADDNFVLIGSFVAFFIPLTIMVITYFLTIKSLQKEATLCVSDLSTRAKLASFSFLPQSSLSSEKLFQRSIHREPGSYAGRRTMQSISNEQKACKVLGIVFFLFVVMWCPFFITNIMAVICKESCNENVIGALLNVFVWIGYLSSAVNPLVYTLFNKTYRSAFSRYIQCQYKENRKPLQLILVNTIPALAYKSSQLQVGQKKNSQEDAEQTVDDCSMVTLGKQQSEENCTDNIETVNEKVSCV
# Protocol: as §1
# [5] = tested on: vomiting induced by cisplatin in ferrets; test: Cisplatin-induced emesis in ferrets, single oral administration; format: in vivo, ferret; conditions: for Proportion of animal vomiting: 60 min before cisplatin i.v., 5 h observation
# Protocol: Cisplatin-induced emesis in ferrets is largely considered as the most suitable animal model for the study of drug activity against chemotherapy-induced vomiting in man (Georges L. King. Animal models in the study of vomiting. Can. J. Physiol. Pharmacol. 68, 260-268, 1988).
# Three compounds, dixyrazine dihydrochloride and its (R) and (S) enantiomers were tested for their activity against vomiting induced by cisplatin in ferrets following single oral administration.
# The study involved 14 groups of 8 male ferrets weighing between 0.93 kg and 1.45 kg purchased from the company MARSHALL FARMS (NEW YORK, U.S.). Groups were defined as follows: […]
# group 1: control group dosed with the vehicle of test substances (sterile water),
# group 2: method-control group dosed with a method-control substance, granisetron ([…], RBI®), at a dose of 0.3 mg/kg,
# group 3 to 6: group dosed with diyyrazine dihydrochloride at 4 increasing doses of 7.5, 15, 30 and 60 mg/kg,
# group 7 to 10: group dosed with the (R) enantiomer of dixyrazine dihydrochloride at 4 increasing doses of 7.5, 15, 30 and 60 mg/kg,
# group 11 to 14: group dosed with the (S) enantiomer of drazine dihydrochloride at 4 increasing doses of 7.5, 15, 30 and 60 mg/kg.
# On the day prior to the test, animals were fasted and allowed access only to water.
# On the morning of the day of the study, free access to food was allowed for 30 minutes. Subsequently, animals were again put on to a water-only fast for 30 minutes before administration of the three compounds, the vehicle or the method-control substance which were administrated orally in a volume of 5 ml/kg.
# Cisplatin was administrated by the intravenous route at a dose of 115 mg/m^2 and in a volume of 115 ml/m^2 (i.e. approximately at 10 mg/kg), 60 minutes after treatment. […] Emesis was characterised by abdominal contractions, which were associated with expulsion or attempted expulsion of stomach contents.
# The time to onset of emesis was noted. The number of episodes of vomiting and the number of abdominal retches associated with episodes of emesis were also noted.
# [6] = tested on: vomiting and nausea in cancerotherapy; conditions: patients in cancerotherapy, personal interview; cited from earlier work
# [7] = highest dose of 60 mg/kg p.o., dihydrochloride, 60 mg/kg
# [8] = highest dose of 60 mg/kg p.o., listed as (R) enantiomer of dixyrazine dihydrochloride, dihydrochloride, 60 mg/kg
smiles,measurement,setting,value
"C[C@@H](CN1CCN(CCOCCO)CC1)CN1c2ccccc2Sc2ccccc21 (single isomer, unassigned) [(S) enantiomer (free base)]",percent inhibition of control specific binding,"[1]; D4.4, 0.2 μM, mean of duplicate",— (Symbol-represents an inhibition<10%)
same,percent inhibition of control specific binding,"[1]; D4.4, 10 μM, mean of duplicate",27%
same,percent inhibition of control specific binding,"[2]; D3, 0.2 μM, mean of duplicate",— (Symbol-represents an inhibition<10%)
same,percent inhibition of control specific binding,"[2]; D3, 10 μM, mean of duplicate",74%
same,percent inhibition of control specific binding,"D2 dopaminergic receptor; D2, 10 μM, mean of duplicate",89%
same,percent inhibition of control specific binding,"[3]; H1, 10 μM, mean of duplicate",101%
same,percent inhibition of control specific binding,"[4]; 5-HT2, 10 μM, mean of duplicate",101%
"C[C@H](CN1CCN(CCOCCO)CC1)CN1c2ccccc2Sc2ccccc21 [(R) enantiomer (free base), 2-(2-{4-[(2R)-2-methyl-3-(10H-phenothiazin-10-yl)propyl]-1-piperazinyl}ethoxy)ethanol]",inhibition at 0.1 µM,"[1]; D4.4, 0.1 μM, mean of duplicate, read-out: percent inhibition of control specific binding",40%
same,inhibition at 10 µM,"[1]; D4.4, 10 μM, mean of duplicate, read-out: percent inhibition of control specific binding",99%
same,inhibition at 0.1 µM,"[2]; D3, 0.1 μM, mean of duplicate, read-out: percent inhibition of control specific binding",81%
same,inhibition at 10 µM,"[2]; D3, 10 μM, mean of duplicate, read-out: percent inhibition of control specific binding",100%
same,inhibition at 10 µM,"D2 dopaminergic receptor; D2, 10 μM, mean of duplicate, read-out: percent inhibition of control specific binding",100%
same,inhibition at 10 µM,"[3]; H1, 10 μM, mean of duplicate, read-out: percent inhibition of control specific binding",101%
same,inhibition at 10 µM,"[4]; read-out: percent inhibition of control specific binding, 5-HT2, 10 μM, mean of duplicate",102%
"C[C@H](CN1CCN(CCOCCO)CC1)CN1c2ccccc2Sc2ccccc21.Cl.Cl [(R) enantiomer dihydrochloride, 2-(2-{4-[(2R)-2-methyl-3-(10H-phenothiazin-10-yl)propyl]-1-piperazinyl}ethoxy)ethanol dihydrochloride]",Time to onset of emesis,[5]; 7.5 mg/kg p.o.,81 min
same,Proportion of animal vomiting,[5]; 7.5 mg/kg p.o.,5/8
same,Time to onset of emesis,[5]; 15 mg/kg p.o.,80 min
same,Proportion of animal vomiting,[5]; 15 mg/kg p.o.,8/8
same,Time to onset of emesis,[5]; 30 mg/kg p.o.,81 min
same,Proportion of animal vomiting,[5]; 30 mg/kg p.o.,5/8
same,Time to onset of emesis,[5]; 60 mg/kg p.o.,134 min
same,"suppression of vomiting, number of animals",[5]; 60 mg/kg p.o.,4 animals out of 8
same,Proportion of animal vomiting,[5]; 60 mg/kg p.o.,4/8*
same,antiemetic effect (in words),[5]; [7],induced an antiemetic effect
same,effect on time to onset of emesis (in words),[5]; [7],a tendency to increase the time to onset of emesis
same,antiemetic effect (in words),[5]; [8],significantly reduce cisplatin-induced emesis
same,effect on time to onset of emesis (in words),[5]; [8],clear tendency to delay the latency to onset of the first vomiting episode
same,IC50,[1],158 nM
same,Stereoselectivity ratio,"[1]; D4.4, IC50 of (S) enantiomer/IC50 of (R) enantiomer",158
same,IC50,[2],50.1 nM
same,Stereoselectivity ratio,"[2]; D3, IC50 of (S) enantiomer/IC50 of (R) enantiomer",63
same,IC50,D2 dopaminergic receptor,2.51 nM
same,Stereoselectivity ratio,"D2 dopaminergic receptor; D2, IC50 of (S) enantiomer/IC50 of (R) enantiomer",316
same,IC50,[3],0.2 nM
same,Stereoselectivity ratio,"[3]; H1, IC50 of (S) enantiomer/IC50 of (R) enantiomer",25
same,IC50,[4],3.98 nM
same,Stereoselectivity ratio,"[4]; 5-HT2, IC50 of (S) enantiomer/IC50 of (R) enantiomer",16
"C[C@@H](CN1CCN(CCOCCO)CC1)CN1c2ccccc2Sc2ccccc21.Cl.Cl [(S) enantiomer dihydrochloride, 2-(2-{4-[(2S)-2-Methyl-3-(10H-phenothiazin-10-yl)propyl]-1-piperazinyl}ethoxy)ethanol dihydrochloride]",Time to onset of emesis,[5]; 7.5 mg/kg p.o.,87 min
same,Proportion of animal vomiting,[5]; 7.5 mg/kg p.o.,8/8
same,Time to onset of emesis,[5]; 15 mg/kg p.o.,87 min
same,Proportion of animal vomiting,[5]; 15 mg/kg p.o.,8/8
same,Time to onset of emesis,[5]; 30 mg/kg p.o.,82 min
same,Proportion of animal vomiting,[5]; 30 mg/kg p.o.,7/8
same,Time to onset of emesis,[5]; 60 mg/kg p.o.,68* minutes
same,Proportion of animal vomiting,[5]; 60 mg/kg p.o.,7/8
same,pro-emetic properties (in words),[5]; cisplatin-treated ferrets,undesirable pro-emetic properties
same,effect on time to onset of emesis (in words),[5]; highest dose of 60 mg/kg p.o.,statistically significant decrease in the time of onset of emesis
same,antiemetic effect (in words),"[5]; whatever the dose tested (7.5 to 60 mg/kg p.o.), dihydrochloride",no antiemetic effect
same,antiemetic effect (in words),"[5]; whatever the dose tested (7.5 to 60 mg/kg p.o.), listed as (S) enantiomer of dixyrazine dihydrochloride, dihydrochloride",inactive in preventing cisplatin-induced emesis
same,IC50,[1],25100 nM
same,IC50,[2],3160 nM
same,IC50,D2 dopaminergic receptor,794 nM
same,IC50,[3],5.01 nM
same,IC50,[4],63.1 nM
"CN1C2CCCC1CC(NC(=O)c1nn(C)c3ccccc13)C2 (stereo not shown) [Granisetron, reference compound]",Time to onset of emesis,[5]; 0.3 mg/kg p.o.,160* minutes
same,antiemetic effect (in words),[5]; 0.3 mg/kg p.o.,significant antiemetic effect
same,Proportion of animal vomiting,[5]; 0.3 mg/kg p.o.,3/8*
same,"suppression of vomiting, number of animals","[5]; 0.3 mg/kg p.o., 1 hour before cisplatin i.v.",5 animals out of 8
same,effect on time to onset of emesis (in words),"[5]; 0.3 mg/kg p.o., the 3 animals that still vomited",increase in the time to onset of emesis
Cc1nccn1CC1CCc2c(c3ccccc3n2C)C1=O (stereo not shown) [ondansetron],effect on nausea (in words),[6],no clear-cut effect against the nausea
same,effect on vomiting (in words),[6],clearly effective in preventing vomiting
